Where a name gives a salt, the structure may show the parent alone.
The compounds below were run against T1, human A3AR (Homo sapiens, UniProt P0DMS8) (assay: LOPAC library primary screen: single concentration (10 μM) inhibition of 25 nM CA200645 binding, PHERAstar FS). Conditions: not given.
T1 construct: expressed in transfected cells
T1 sequence (P0DMS8 1-318): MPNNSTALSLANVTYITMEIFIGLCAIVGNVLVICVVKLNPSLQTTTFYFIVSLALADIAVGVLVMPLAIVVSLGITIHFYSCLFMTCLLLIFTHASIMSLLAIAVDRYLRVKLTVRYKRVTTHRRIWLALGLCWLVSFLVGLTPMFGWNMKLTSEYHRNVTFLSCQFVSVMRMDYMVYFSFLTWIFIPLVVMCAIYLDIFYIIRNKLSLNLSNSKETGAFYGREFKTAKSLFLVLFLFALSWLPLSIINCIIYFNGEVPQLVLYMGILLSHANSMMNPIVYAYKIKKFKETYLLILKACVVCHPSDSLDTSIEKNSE

| Compound | % 25 nM CA200645 binding |
| --- | --- |
| CN1[C@@H](CC(=O)c2ccccc2)CCC[C@H]1C[C@H](O)c1ccccc1.Cl [alpha-Lobeline hydrochloride] | 90.3 ± 6.6% |
| CC(C)(C)c1cc(/C=C(\C#N)C(N)=S)cc(C(C)(C)C)c1O [Tyrphostin AG 879] | 57.5 ± 23.0% |
| COc1ccccc1N1CCN(CCCNc2c(C)c(=O)n(C)c(=O)n2C)CC1 [Urapidil, 5-Methyl-] | 83.5 ± 22.8% |
| CC(C)(CO)Cc1cc(C(C)(C)C)c(O)c(C(C)(C)C)c1 [CGP-7930] | 87.6 ± 4.9% |
| CC(=O)OCC(CCn1cnc2cnc(N)nc21)COC(C)=O [Famciclovir] | 104.8 ± 9.2% |
| Cn1cc(C2=C(c3ccc(Cl)cc3Cl)C(=O)NC2=O)c2ccccc21 [SB 216763] | 94.5 ± 10.2% |
| CCc1ccc2c(-c3cccc(Cl)c3)nc(=O)n(CC)c2n1 [YM 976] | 93.5 ± 3.0% |
| CC1CN(S(=O)(=O)c2cccc3cnccc23)CCN1.Cl.Cl (stereo not shown) | 95.4 ± 14.7% |
| O=C(O)c1ccccc1Nc1ccccc1 [N-Phenylanthranilic acid] | 95.2 ± 6.4% |
| C[C@@](Cc1ccc(O)c(O)c1)(NN)C(=O)O [S-(-)-Carbidopa] | 101.3 ± 7.8% |
| Cc1cccc(C#Cc2ccccc2)n1.Cl | 95.8 ± 6.2% |
| COC(=O)[C@@H](N)Cc1ccc(O)c(O)c1.Cl | 98.6 ± 13.3% |
| S=C(NC1CCCCC1)N1CCC(c2cnc[nH]2)CC1 [Thioperamide maleate] | 99.7 ± 10.4% |
| N[C@@H]1C[C@H]1c1ccccc1 [Tranylcypromine hydrochloride] | 100.1 ± 11.2% |
| CC(/C=C/c1cccc(Oc2ccc(F)cc2)c1)N(O)C(N)=O (stereo not shown) [BWB70C] | 92.4 ± 13.0% |
| O=c1c2ccccc2nc2n1CCc1c-2[nH]c2ccccc12 [Rutaecarpine] | 34.3 ± 2.1% |
| CC(C)NCC(O)COc1cccc2[nH]ccc12 (stereo not drawn) [S(-)-Pindolol] | 98.0 ± 8.4% |
| Nc1ccc(-c2ccc3ccccc3n2)cc1 [BF-170 hydrochloride] | 78.6 ± 20.5% |
| CNC(=O)[C@H]1O[C@@H](n2cnc3c(NCc4ccc(N)cc4)ncnc32)[C@H](O)[C@@H]1O [AB-MECA, reference compound] | 48.5 ± 9.1% |
| CCCn1c(=O)[nH]c(=O)c2nc[nH]c21 [3-n-Propylxanthine] | 101.0 ± 10.1% |
| c1ccc2c(c1)CCCC2C1=NCCN1 (stereo not shown) [Tetrahydrozoline hydrochloride] | 98.2 ± 6.4% |

| Compound | % 25 nM CA200645 binding |
| --- | --- |
| NCCCNCCCCNCCCN [Spermine tetrahydrochloride] | 105.8 ± 16.0% |
| CC1=NN=C(c2ccc(N)cc2)c2cc3c(cc2C1)OCO3.Cl [GYKI 52466 hydrochloride] | 78.2 ± 10.4% |
| CCCCCCCCCCCCCC(=O)O[C@@H]1[C@@H](C)[C@@]2(O)[C@@H](C=C(CO)C[C@]3(O)C(=O)C(C)=C[C@@H]23)[C@@H]2C(C)(C)[C@]12OC(C)=O [Phorbol 12-myristate 13-acetate] | 80.3 ± 5.6% |
| Cn1c(=O)c2[nH]c(C3CCCC3)nc2n(C)c1=O [8-Cyclopentyl-1,3-dimethylxanthine] | 96.1 ± 9.6% |
| Cn1cc(C(=O)OCC2CCN(CCNS(C)(=O)=O)CC2)c2ccccc21 [GR 113808] | 92.8 ± 8.0% |
| CCc1cccc2c3c([nH]c12)C(CC)(CC(=O)O)OCC3 (stereo not shown) [Etodolac] | 97.1 ± 13.7% |
| NC(=O)c1ccccc1 [Benzamide] | 99.1 ± 4.7% |
| O=c1[nH]c(=O)n([C@H]2C[C@H](O)[C@@H](CO)O2)cc1Br [5-Bromo-2'-deoxyuridine] | 101.6 ± 8.3% |
| Br.CCSC(=N)N [S-Ethylisothiourea hydrobromide] | 91.5 ± 10.5% |
| Nc1nc(O)c2ncn(COC(CO)CO)c2n1 [Ganciclovir] | 96.3 ± 6.5% |
| Cl.c1ccc2nc(C3=NCCN3)ccc2c1 [BU224 hydrochloride] | 100.8 ± 7.2% |
| CC(N)C(=O)OC(C)(C)Cc1ccc(Cl)cc1 (stereo not shown) [Alaproclate hydrochloride] | 104.8 ± 8.1% |
| CC(C)[C@H]1CN[C@H](C(=O)O)[C@H]1CC(=O)O [Dihydrokainic acid] | 92.4 ± 30.0% |
| CCCN1CCc2cccc3c2[C@H]1Cc1ccc(O)c(O)c1-3.Cl [R(-)-Propylnorapomorphine hydrochloride] | 96.1 ± 7.1% |
| COc1ccccc1N1CCN(CC(O)COc2cccc3ccccc23)CC1.Cl.Cl (stereo not shown) [Naftopidil dihydrochloride] | 98.6 ± 14.2% |
| CCCn1c(=O)c(C)cn2nc(N)nc12 [ICI 63,137] | 93.4 ± 5.4% |
| L-Methionine sulfoximine | 107.1 ± 5.4% |
| C[C@H]1O[C@@H](n2cc(F)c(=O)[nH]c2=O)[C@H](O)[C@@H]1O [5-fluoro-5'-deoxyuridine] | 95.4 ± 4.3% |
| N=C(N)NC(=O)c1nc(Cl)c(N)nc1N [Amiloride hydrochloride] | 88.5 ± 23.0% |
| COc1ccccc1OCC(O)CN1CCN(CC(=O)Nc2c(C)cccc2C)CC1 (stereo not shown) [Ranolazine dihydrochloride] | 102.3 ± 13.7% |
| Br.C=CCN1CCc2cc(O)c(O)cc2C(c2ccccc2)C1 (racemic) [(±)-SKF 38393, N-allyl-, hydrobromide] | 99.7 ± 11.6% |

| Compound | % 25 nM CA200645 binding |
| --- | --- |
| C[N+](C)(C)CCOC(N)=O [Carbachol] | 103.1 ± 3.5% |
| C=CC[N+](C)(C)c1ccc(CCC(=O)CCc2ccc([N+](C)(C)CC=C)cc2)cc1.[Br-].[Br-] [BW 284c51] | 100.9 ± 3.8% |
| Clc1ccc(C(c2ccc(Cl)cc2)n2cc[n+](CC(OCc3ccc(Cl)cc3Cl)c3ccc(Cl)cc3Cl)c2)cc1 (stereo not shown) [Calmidazolium chloride] | 54.4 ± 19.1% |
| CCN(CC)CCOC(=O)c1cc(Cl)c(N)cc1OC.Cl [SDZ-205,557 hydrochloride] | 87.0 ± 9.3% |
| Cn1c(=O)[nH]c2ncn(C)c2c1=O [1,7-Dimethylxanthine] | 100.9 ± 19.4% |
| O=[N+]([O-])c1cc2nc(O)c(O)nc2cc1[N+](=O)[O-] [DNQX] | 85.0 ± 6.8% |
| CCN1CCc2nc(N)oc2CC1.Cl.Cl [B-HT 933 dihydrochloride] | 90.5 ± 9.0% |
| Cc1cccc(-c2[nH]ncc2-c2ccc3ncccc3n2)n1 [RepSox] | 98.5 ± 5.4% |
| NC(CO)C(=O)NNCc1ccc(O)c(O)c1O (stereo not shown) [Benserazide hydrochloride] | 98.9 ± 5.3% |
| COc1ccc(CN(CCN(C)C)c2ccccn2)cc1 [Pyrilamine maleate] | 84.6 ± 34.1% |
| CCN1C(=O)C=CC1=O [N-Ethylmaleimide] | 99.8 ± 13.3% |
| CCN1CCC[C@H]1CNC(=O)c1cc(S(N)(=O)=O)ccc1OC [(-)-Sulpiride] | 103.0 ± 8.9% |
| C#C[C@]1(O)CC[C@H]2[C@@H]3CCC4=Cc5oncc5C[C@]4(C)[C@H]3CC[C@@]21C [Danazol] | 86.4 ± 9.1% |
| CC(=O)[C@]1(O)Cc2c(O)c3c(c(O)c2[C@@H](O[C@H]2C[C@H](N)[C@H](O)[C@H](C)O2)C1)C(=O)c1ccccc1C3=O [Idarubicin] | 95.1 ± 1.7% |
| COC(=O)C1=CO[C@@H](O)[C@@H]2C(CO)=CC[C@H]12 [Genipin] | 96.3 ± 9.0% |
| Cc1ccc(=O)n(-c2ccccc2)c1 [Pirfenidone] | 96.4 ± 15.8% |
| CCN(CC)CCCCNc1ncc2cc(-c3c(Cl)cccc3Cl)c(NC(=O)NC(C)(C)C)nc2n1 [PD-161570] | 90.7 ± 9.1% |
| CCc1cccc(N(C)C(N)=Nc2cccc3ccccc23)c1 [CNS-1102] | 102.3 ± 11.4% |
| Cc1ccc(C(=O)Nc2ccc(S(=O)(=O)[O-])c3cc(S(=O)(=O)[O-])cc(S(=O)(=O)[O-])c23)cc1NC(=O)c1cccc(NC(=O)Nc2cccc(C(=O)Nc3cc(C(=O)Nc4ccc(S(=O)(=O)[O-])c5cc(S(=O)(=O)[O-])cc(S(=O)(=O)[O-])c45)ccc3C)c2)c1.[Na+].[Na+].[Na+].[Na+].[Na+].[Na+] [Suramin sodium salt] | 93.4 ± 9.0% |
| CC(=O)[C@H]1CC[C@H]2[C@@H]3CC[C@H]4C[C@](C)(O)CC[C@]4(C)[C@H]3CC[C@]12C [Ganaxolone] | 83.6 ± 13.4% |

Same assay, conditions: % of 25 nM CA200645 binding in the presence of 10 μM compound, LOPAC full screen, A3AR CHO cells

| Compound | % Total CA200645 binding |
| --- | --- |
| CNC(=O)[C@H]1O[C@@H](n2cnc3c(NCc4ccc(N)cc4)ncnc32)[C@H](O)[C@@H]1O [AB-MECA, reference compound] | 49.5 ± 5.8% |

Same assay, conditions: % of control wells (1% DMSO and 25 nM CA200645); compounds at 10 µM; whole live cells expressing the A3AR; mean ± SD, three experiments in duplicate

| Compound | % 25 nM CA200645 binding |
| --- | --- |
| CCCCCN(CCCCC)C(=O)C(CCC(=O)O)NC(=O)c1ccc(Cl)c(Cl)c1 (stereo not shown) [Lorglumide sodium] | 99.4 ± 5.5% |
| CC1=C(C)C(=O)C(CCCCC#CCCCC#CCO)=C(C)C1=O [AA-861] | 69.6 ± 8.4% |

Same assay, conditions: compounds tested at 10 µM; % of control wells (1% DMSO and 25 nM CA200645); whole live cells expressing the A3AR; mean ± SD, three experiments in duplicate

| Compound | % 25 nM CA200645 binding |
| --- | --- |
| O=C1N(c2ccccc2)c2ccccc2C1(Cc1ccncc1)Cc1ccncc1 [Linopirdine] | 105.3 ± 3.6% |
| NC(CCCP(=O)(O)O)C(=O)O (racemic) [(±)-2-Amino-5-phosphonopentanoic acid] | 90.8 ± 6.2% |
| CCCOc1ccccc1-c1nc2nn[nH]c2c(=O)[nH]1 [Zaprinast] | 109.4 ± 6.4% |
| CCCCCCCCCCCCCCSCC(=O)O [Tetradecylthioacetic acid] | 101.3 ± 12.1% |
| CCC1(C2=NCCN2)Cc2ccccc2O1 (stereo not shown) [Efaroxan hydrochloride] | 95.2 ± 6.3% |
